Tests used:
Format in all cases: biochemical
TMPRSS2 = TMPRSS2 (Homo sapiens, UniProt O15393); assay: PS-SCL / HyCoSuL substrate specificity screening, TMPRSS2; settings: for P2 Position Substrate Activity for TMPRSS2 (percent substrate cleavage/proteolysis): residue fixed at P2 position of substrate library
matriptase = target: T1, matriptase (Homo sapiens, UniProt Q9Y5Y6); assay: HyCoSuL P4-P2 substrate specificity screening, matriptase; settings: for P2 Position Substrate Activity for matriptase (percent substrate cleavage/proteolysis): residue fixed at P2 position; for P3 Position Various Amino Acids Substrate Activity, matriptase (percent substrate cleavage/proteolysis): residue fixed at P3 position of substrate library; for P4 Position Various Amino Acids Substrate Activity, matriptase (percent substrate proteolysis/cleavage): residue fixed at P4 position of substrate library
T1 sequence (Q9Y5Y6 1-855): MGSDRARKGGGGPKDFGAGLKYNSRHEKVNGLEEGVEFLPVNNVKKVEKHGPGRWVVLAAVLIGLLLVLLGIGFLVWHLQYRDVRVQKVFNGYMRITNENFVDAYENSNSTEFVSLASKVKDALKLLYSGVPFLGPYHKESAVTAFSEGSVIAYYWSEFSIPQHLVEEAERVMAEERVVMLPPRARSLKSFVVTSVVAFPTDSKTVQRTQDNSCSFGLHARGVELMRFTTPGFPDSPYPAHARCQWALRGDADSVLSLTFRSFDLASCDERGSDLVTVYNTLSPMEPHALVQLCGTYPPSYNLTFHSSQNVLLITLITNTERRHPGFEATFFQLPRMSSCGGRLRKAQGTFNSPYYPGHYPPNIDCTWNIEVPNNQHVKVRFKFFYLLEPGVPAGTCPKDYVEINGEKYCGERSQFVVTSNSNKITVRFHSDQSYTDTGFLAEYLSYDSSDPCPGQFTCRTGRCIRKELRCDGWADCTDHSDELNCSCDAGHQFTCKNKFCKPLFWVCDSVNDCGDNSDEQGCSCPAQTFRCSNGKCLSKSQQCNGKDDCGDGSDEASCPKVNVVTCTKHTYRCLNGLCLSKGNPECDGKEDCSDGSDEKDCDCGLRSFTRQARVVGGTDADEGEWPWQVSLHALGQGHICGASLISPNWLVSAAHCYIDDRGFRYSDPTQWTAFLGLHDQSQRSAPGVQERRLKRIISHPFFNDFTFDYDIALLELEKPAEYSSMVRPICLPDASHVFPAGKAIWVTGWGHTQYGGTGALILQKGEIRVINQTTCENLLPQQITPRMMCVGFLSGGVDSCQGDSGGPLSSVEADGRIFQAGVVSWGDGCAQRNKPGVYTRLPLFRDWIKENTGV

hepsin = target: T2, hepsin (Homo sapiens, UniProt P05981); assay: HyCoSuL P4-P2 substrate specificity screening, hepsin; settings: for P2 Position Substrate Activity for hepsin (percent substrate cleavage/proteolysis): residue fixed at P2 position; for P3 Position Various Amino Acids Substrate Activity, hepsin (percent substrate cleavage/proteolysis): residue fixed at P3 position of substrate library; for P4 Position Various Amino Acids Substrate Activity, hepsin (percent substrate proteolysis/cleavage): residue fixed at P4 position of substrate library
T2 construct: purchased R&D Systems 4776-SE-010
T2 sequence (P05981 163-417 limits assumed): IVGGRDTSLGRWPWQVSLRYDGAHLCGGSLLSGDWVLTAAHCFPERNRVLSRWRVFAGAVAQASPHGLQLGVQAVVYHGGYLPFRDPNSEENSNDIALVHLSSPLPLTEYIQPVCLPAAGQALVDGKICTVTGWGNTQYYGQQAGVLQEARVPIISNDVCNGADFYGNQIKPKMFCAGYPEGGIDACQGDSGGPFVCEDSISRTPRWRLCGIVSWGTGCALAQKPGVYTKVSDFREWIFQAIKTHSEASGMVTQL
T2 sequence (P05981 1-162 partner limits assumed): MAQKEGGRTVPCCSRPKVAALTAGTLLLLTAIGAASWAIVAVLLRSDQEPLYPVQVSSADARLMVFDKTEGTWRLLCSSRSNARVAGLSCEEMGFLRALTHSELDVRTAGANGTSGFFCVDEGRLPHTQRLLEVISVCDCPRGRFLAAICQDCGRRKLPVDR

HGFA = target: T3, HGFA (Homo sapiens, UniProt Q04756); assay: HyCoSuL P4-P2 substrate specificity screening, HGFA; settings: for P2 Position Substrate Activity for HGFA (percent substrate cleavage/proteolysis): residue fixed at P2 position; for P3 Position Various Amino Acids Substrate Activity, HGFA (percent substrate cleavage/proteolysis): residue fixed at P3 position of substrate library; for P4 Position Various Amino Acids Substrate Activity, HGFA (percent substrate proteolysis/cleavage): residue fixed at P4 position of substrate library
T3 sequence (Q04756 373-655): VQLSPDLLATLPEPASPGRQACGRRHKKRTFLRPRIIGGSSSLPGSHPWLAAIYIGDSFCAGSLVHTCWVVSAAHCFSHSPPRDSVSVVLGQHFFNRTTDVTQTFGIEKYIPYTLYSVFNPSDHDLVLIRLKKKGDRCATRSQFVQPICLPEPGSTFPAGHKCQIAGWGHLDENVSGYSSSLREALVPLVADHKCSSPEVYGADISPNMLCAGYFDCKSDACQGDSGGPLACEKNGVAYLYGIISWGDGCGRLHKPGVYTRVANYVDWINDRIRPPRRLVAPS

[1] = best recognized amino acid set to 100%
[2] = residue fixed at P3 position of substrate library
[3] = residue fixed at P4 position of substrate library
[4] = P1-Arg HyCoSuL, 100 μM, best recognized amino acid set to 100%
[5] = residue fixed at P3 position, P1-Arg HyCoSuL, 100 μM, best recognized amino acid set to 100%
[6] = residue fixed at P4 position, P1-Arg HyCoSuL, 100 μM, best recognized amino acid set to 100%

Chain of TMPRSS2 (O15393 whole entry): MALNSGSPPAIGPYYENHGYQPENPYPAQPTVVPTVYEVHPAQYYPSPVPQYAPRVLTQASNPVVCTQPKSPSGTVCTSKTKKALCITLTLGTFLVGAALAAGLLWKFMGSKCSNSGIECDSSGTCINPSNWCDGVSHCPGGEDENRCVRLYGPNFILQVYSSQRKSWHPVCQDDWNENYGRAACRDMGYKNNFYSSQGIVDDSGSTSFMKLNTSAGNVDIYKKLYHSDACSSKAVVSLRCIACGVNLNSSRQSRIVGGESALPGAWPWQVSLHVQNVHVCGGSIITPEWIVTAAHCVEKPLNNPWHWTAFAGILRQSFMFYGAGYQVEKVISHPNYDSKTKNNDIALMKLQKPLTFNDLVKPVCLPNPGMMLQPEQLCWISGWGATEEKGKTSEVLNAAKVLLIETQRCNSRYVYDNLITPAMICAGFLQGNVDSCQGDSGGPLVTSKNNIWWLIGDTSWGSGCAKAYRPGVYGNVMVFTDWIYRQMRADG

| P2 Position Substrate Activity for TMPRSS2 (percent substrate cleavage/proteolysis) (TMPRSS2; [1]) [%] | P3 Position Various Amino Acids Substrate Activity, TMPRSS2 (percent substrate cleavage/proteolysis) (TMPRSS2; [2]) [%] | P4 Position Various Amino Acids Substrate Activity, TMPRSS2 (percent substrate proteolysis/cleavage) (TMPRSS2; [3]) [%] | P2 Position Substrate Activity for matriptase (percent substrate cleavage/proteolysis) (matriptase; [4]) [%] | P3 Position Various Amino Acids Substrate Activity, matriptase (percent substrate cleavage/proteolysis) (matriptase) [%] | P3 Position Substrate Activity for matriptase (percent substrate cleavage/proteolysis) (matriptase; [5]) [%] | P4 Position Various Amino Acids Substrate Activity, matriptase (percent substrate proteolysis/cleavage) (matriptase) [%] | P4 Position Substrate Activity for matriptase (percent substrate cleavage/proteolysis) (matriptase; [6]) [%] | P2 Position Substrate Activity for hepsin (percent substrate cleavage/proteolysis) (hepsin; [4]) [%] | P3 Position Substrate Activity for hepsin (percent substrate cleavage/proteolysis) (hepsin; [5]) [%] | P4 Position Substrate Activity for hepsin (percent substrate cleavage/proteolysis) (hepsin; [6]) [%] | P2 Position Substrate Activity for HGFA (percent substrate cleavage/proteolysis) (HGFA; [4]) [%] | P3 Position Substrate Activity for HGFA (percent substrate cleavage/proteolysis) (HGFA; [5]) [%] | P4 Position Substrate Activity for HGFA (percent substrate cleavage/proteolysis) (HGFA; [6]) [%] | P3 Position Substrate Activity for TMPRSS2 (percent substrate cleavage/proteolysis) (TMPRSS2; residue fixed at P3 position of substrate library, best recognized amino acid set to 100%) [%] | P4 Position Substrate Activity for TMPRSS2 (percent substrate cleavage/proteolysis) (TMPRSS2; residue fixed at P4 position of substrate library, best recognized amino acid set to 100%) [%] | P3 Position Various Amino Acids Substrate Activity, hepsin (percent substrate cleavage/proteolysis) (hepsin) [%] | P4 Position Various Amino Acids Substrate Activity, hepsin (percent substrate proteolysis/cleavage) (hepsin) [%] | P3 Position Various Amino Acids Substrate Activity, HGFA (percent substrate cleavage/proteolysis) (HGFA) [%] | P4 Position Various Amino Acids Substrate Activity, HGFA (percent substrate proteolysis/cleavage) (HGFA) [%] | Molecule |
| --- | --- | --- | --- | --- | --- | --- | --- | --- | --- | --- | --- | --- | --- | --- | --- | --- | --- | --- | --- | --- |
| 52.14 |  |  | 0 | 75 | 75.40 | 49 | 48.54 | 0.00 | 82.17 | 91.83 | 0.00 | 30.67 | 16.90 | 71.88 | 63.90 |  |  |  |  | N[C@@H](CCCCOCc1ccccc1)C(=O)O [L-Nle(O-Bzl)] |
| 24.73 | 0.00 | 15.31 | 10 | 0 |  | 11 |  | 10.66 |  |  | 1.75 |  |  |  |  | 1.64 | 34.68 | 0.83 | 9.25 | O=C(O)[C@@H]1CCCCN1 [L-Pip] |
| 32.33 | 21.50 | 16.80 | 1 | 7 |  | 6 |  | 7.81 |  |  | 1.12 |  |  |  |  | 0.00 | 0.00 | 18.14 | 2.49 | Cn1cc(C[C@H](N)C(=O)O)c2ccccc21 [L-Trp(Me)] |
| 28.86 | 19.38 | 34.19 | 8 | 18 |  | 29 |  | 51.85 |  |  | 8.33 |  |  |  |  | 16.77 | 43.08 | 9.51 | 11.66 | CC(C)[C@H](N)C(=O)O [L-Val] |
| 8.64 | 45.55 | 38.95 | 5 | 41 |  |  |  |  |  |  |  |  |  |  |  |  |  |  |  | L-Met |

Second part, the molecule before the results:

| Molecule | P2 Position Substrate Activity for TMPRSS2 (percent substrate cleavage/proteolysis) (TMPRSS2; [1]) [%] | P3 Position Various Amino Acids Substrate Activity, TMPRSS2 (percent substrate cleavage/proteolysis) (TMPRSS2; [2]) [%] | P4 Position Various Amino Acids Substrate Activity, TMPRSS2 (percent substrate proteolysis/cleavage) (TMPRSS2; [3]) [%] | P2 Position Substrate Activity for matriptase (percent substrate cleavage/proteolysis) (matriptase; [4]) [%] | P3 Position Various Amino Acids Substrate Activity, matriptase (percent substrate cleavage/proteolysis) (matriptase) [%] | P3 Position Substrate Activity for matriptase (percent substrate cleavage/proteolysis) (matriptase; [5]) [%] | P4 Position Various Amino Acids Substrate Activity, matriptase (percent substrate proteolysis/cleavage) (matriptase) [%] | P4 Position Substrate Activity for matriptase (percent substrate cleavage/proteolysis) (matriptase; [6]) [%] | P2 Position Substrate Activity for hepsin (percent substrate cleavage/proteolysis) (hepsin; [4]) [%] | P3 Position Substrate Activity for hepsin (percent substrate cleavage/proteolysis) (hepsin; [5]) [%] | P4 Position Substrate Activity for hepsin (percent substrate cleavage/proteolysis) (hepsin; [6]) [%] | P2 Position Substrate Activity for HGFA (percent substrate cleavage/proteolysis) (HGFA; [4]) [%] | P3 Position Substrate Activity for HGFA (percent substrate cleavage/proteolysis) (HGFA; [5]) [%] | P4 Position Substrate Activity for HGFA (percent substrate cleavage/proteolysis) (HGFA; [6]) [%] | P3 Position Substrate Activity for TMPRSS2 (percent substrate cleavage/proteolysis) (TMPRSS2; residue fixed at P3 position of substrate library, best recognized amino acid set to 100%) [%] | P4 Position Substrate Activity for TMPRSS2 (percent substrate cleavage/proteolysis) (TMPRSS2; residue fixed at P4 position of substrate library, best recognized amino acid set to 100%) [%] | P3 Position Various Amino Acids Substrate Activity, hepsin (percent substrate cleavage/proteolysis) (hepsin) [%] | P4 Position Various Amino Acids Substrate Activity, hepsin (percent substrate proteolysis/cleavage) (hepsin) [%] | P3 Position Various Amino Acids Substrate Activity, HGFA (percent substrate cleavage/proteolysis) (HGFA) [%] | P4 Position Various Amino Acids Substrate Activity, HGFA (percent substrate proteolysis/cleavage) (HGFA) [%] |
| --- | --- | --- | --- | --- | --- | --- | --- | --- | --- | --- | --- | --- | --- | --- | --- | --- | --- | --- | --- | --- |
| NC1(C(=O)O)CCCC1 [AC5C] | 0.00 | 0.00 | 17.02 |  |  |  |  |  |  |  |  |  |  |  |  |  |  |  |  |  |
| N[C@@H](Cc1ccc(F)cc1)C(=O)O [L-Phe(4-F)] | 100.00 | 14.82 | 21.80 | 65 | 11 |  | 8 |  | 32.86 |  |  | 4.84 |  |  |  |  | 5.16 | 27.78 | 15.01 | 11.22 |
| CC(C)CC[C@H](N)C(=O)O [L-hLeu] | 8.15 | 35.41 | 53.91 | 5 | 25 |  | 27 |  | 14.44 |  |  | 72.69 |  |  |  |  | 13.84 | 41.61 | 23.44 | 14.86 |
| D-Ala | 0.00 | 0.00 | 27.00 | 0 | 2 |  | 6 |  | 0.00 |  |  | 0.00 |  |  |  |  | 48.09 | 18.44 | 9.84 | 7.11 |

— patent publication US20250171495A1, “MUTLI-TARGETED SERINE PROTEASE INHIBITORS FOR TREATMENT OF CANCER AND VIRAL INFECTION” (Washington University, priority 2023, published 2025)
